1 compound from patent EP0863156A1, “Peptides useful as somatostatin antagonists” (American Cyanamid Company, priority 1997, dated 1998) can be followed below.

Square brackets hold non-standard residues; d marks the D form. Peptide text beside a SMILES is read from it.

Experiment [1] deals with T1, SSTR2 (Rattus norvegicus, UniProt P30680). Briefly: Competitive binding of 125I labeled S-14 to membranes of cells expressing transfected SSTR2 (SPA). Details: expressed in transfected cells. How it is done:
Membrane preparation. Tissue culture cell lines expressing transfected cDNA clones of SSTR2 and SSTR5 are used as a source of plasma membranes which specifically bind ^125I labeled S-14 (Amersham, Arlington Heights, IL). Cells are removed from culture dishes by incubation at 4°C for 5 minutes in PBS containing 1 mM EDTA, spun down (2,000 rpm, 5') and resuspended in 15 mL homogenization buffer (1 mM sodium bicarbonate pH 7.2, 1 mM EDTA, 1 mM EGTA and the following protease inhibitors: leupeptin and aprotenin at 5 µg/mL and benzamidine and bacitracin at 100 µg/mL). Cells are given 20 strokes with a Dounce homogenizer on ice and spun at 2000 rpm for 10 minutes. Membranes are isolated from the supernatant by centrifugation at 17,000 rpm for 30 minutes. The membrane pellet is washed once in 15 mL homogenization buffer and once in storage buffer (25 mM Tris pH 7.4 containing protease inhibitors). […] The membrane pellet is resuspended in storage buffer, measured for protein concentration (BioRad, CA) and stored at -80°C.
Binding assay. […] Bound radioligand is determined by counting in a Microbeta Liquid Scintillation counter (Wallac, Gaithersburg, MD). Binding data is plotted and IC50 and Ki values are calculated for test compounds using Prism software (Graphpad Software Inc., San Diego, CA) and are shown in Table V. Binding is expressed as Ki, µM.

In experiment [2] the target is T1, SSTR2. Briefly: cAMP accumulation in forskolin-stimulated GH4C1/SSTR2 cells (SPA radioimmunoassay). The class given is cell-based. Set-up: expressed in transfected cells; host or cells: GH4C1 rat pituitary tumor cells (GH4C1/SSTR2). To be noted: in the absence of SRIF (inverse agonist activity). The text has this:
A primary effect of SRIF upon mammalian cells is the reduction of cyclic adenosine 3',5'-monophosphate(cAMP) levels, via inhibition of adenylyl cyclase. This is the basis of a common assay for SRIF agonists and antagonists, whereby SRIF agonists reduce artificially stimulated cAMP levels, and SRIF antagonists reverse the effect of SRIF. The rat pituitary tumor cell line GH4C1 predominantly expresses SSTR2, and responds to SRIF and to forskolin, a stimulator of adenylate cyclase (see C.M. Eppler, et al., J. Biol. Chem., 267, 15603-15612, 1992, incorporated herein by reference). […] This increases the response to SRIF and provides a greater dynamic range for the measurement of SRIF antagonist activity.
Stimulation of cells. GH4C1/SSTR2 cells, grown in DMEM with 10% bovine serum, are released from a tissue culture dish by incubation for several minutes at 37° C with PBS containing 0.5 mM EDTA. Cells are washed in induction buffer (PBS containing 100 µM IBMX (an inhibitor of cAMP breakdown) and 2 mM CaCl2) at room temperature, and resuspended at 2 x 10^6/mL in induction buffer. Into each well of a 96-well tray are added 50 µL of a 2 X concentration of stimulants in induction buffer. […] Baseline cAMP levels are determined in samples with no added forskolin or SRIF, and each treatment is performed in triplicate.
cAMP assay. […] The 96-well tray is sealed, shaken at room temperature overnight and measured for bound radioligand in a MicroBeta liquid scintillation counter (Wallac, Gaithersburg. MD). The standard curve is determined for each experiment by performing a nonlinear regression (exponential decay) analysis of cpm measured for the cAMP standards vs. their log concentrations, and test sample values are determined by using Prism software (Graphpad Software Inc., San Diego, CA) and are shown in Table II and Figure 1.
The intrinsic activity of an SRIF antagonist is the percent reversal of the SSTR2 activation by SRIF or MK678, wherein 0% is defined by cAMP levels in samples treated with forskolin plus SRIF or MK678 and 100% is the cAMP level measured after treatment with forskolin alone. […]

T1 sequence (P30680 whole entry): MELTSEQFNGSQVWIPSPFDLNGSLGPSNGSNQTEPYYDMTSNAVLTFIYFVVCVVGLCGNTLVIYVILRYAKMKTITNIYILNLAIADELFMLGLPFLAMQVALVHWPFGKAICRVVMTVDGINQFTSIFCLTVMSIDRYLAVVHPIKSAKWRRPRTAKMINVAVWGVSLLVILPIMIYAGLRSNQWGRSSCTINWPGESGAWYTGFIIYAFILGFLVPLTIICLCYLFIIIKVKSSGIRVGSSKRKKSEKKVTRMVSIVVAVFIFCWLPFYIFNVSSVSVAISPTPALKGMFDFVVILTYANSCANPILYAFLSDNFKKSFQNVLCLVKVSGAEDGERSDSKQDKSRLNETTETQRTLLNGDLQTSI

With `CC[C@@H](C)[C@@H](NC(=O)[C@@H](Cc1ccccc1)NC(=O)[C@@H](Cc1c[nH]cn1)NC(C)=O)C(=O)N[C@H](CCCNC(=N)N)C(=O)N[C@H](Cc1c[nH]c2ccccc12)C(=O)N[C@H](Cc1ccccc1)C(N)=O` [Peptide 1, Ac-D-His-D-Phe-D-Ile-D-Arg-D-Trp-D-Phe-NH2] (Ac-[dH][dF][dI][dR][dW][dF]-NH2), the Ki – broadly, a dissociation constant, usually derived from enzyme kinetics or from competition with a known ligand – in experiment [1] was 140 nM. The “forskolin-stimulated cAMP levels” value in experiment [2] is “increase in forskolin-stimulated cAMP levels”.
